US20240335443A1, “IMIDAZOLOPYRIDAZINE OR PYRAZOLOPYRIMIDINE COMPOUNDS AND COMPOSITIONS” (Anrui Biomedical Technology (Guangzhou) Co., Ltd., priority 2021, published 2024)
Structures can show the parent of a compound that is named as a salt. Where two headings read alike, the source gives them in different places.

Columns and labels:
[1] = system: IL-23 induced STAT3 in HEK-Blue™ IL-23 cells; assay: IL-23 induced STAT3 QUANTI-Blue reporter assay in HEK-Blue IL-23 cells; assay type: cell-based; settings: IL-23 0.1 ng/mL, SEAP levels, class symbols, read-out: IL23 reporter assay (IC50 nM)
Method: Biological Example 2. IL-23 Induced STAT3 QUANTI-Blue in HEK-Blue™ IL-23 Cells
HEK-Blue™ IL-23 cells were prepared at 2×10^5 cells/ml for adding 5000 cell/well and incubate plates containing compounds+cells for 1 hour at 37° C. Prepare IL-23 (treatment at final conc. 0.1 ng/mL) during incubation and add 2 ul per well of prepared cytokine in media to appropriate wells. The plate is incubated for overnight at 37° C. The next day, QUANTI-Blue solution is prepared. 18 ul of QUANTI-Blue solution per well is added into a new 384-well clear flat bottom plate, then add 2 ul of induced and treated HEK-Blue cell supernatant from overnight plate. Incubate the plate at 37° C. for 2 hours and determine SEAP levels.

[2] = molecular target: T1, N-terminal His-tagged TYK2 pseudokinase domain (Homo sapiens, UniProt P29597); assay: TYK2 JH2 domain SPA binding assay; settings: displacement of H3 probe (20 nM), 30 min room temperature; class symbols
T1 construct: the N-terminal His-tagged TYK2 pseudokinase domain; His (N); purchased Pharmaron
Method: TYK2 JH2 Domain Binding Assay
After incubating at room temperature for 30 min, the inhibition was calculated by the displacement of [3H] 3 binding as determined by scintillation counting. Dose-response curves were generated to determine the concentration required to inhibit H3 probe binding by […] (IC50).

[3] = HEK-Blue IL-23, HEK-Blue IL-23 cells

T1 sequence (P29597 589-875 limits assumed): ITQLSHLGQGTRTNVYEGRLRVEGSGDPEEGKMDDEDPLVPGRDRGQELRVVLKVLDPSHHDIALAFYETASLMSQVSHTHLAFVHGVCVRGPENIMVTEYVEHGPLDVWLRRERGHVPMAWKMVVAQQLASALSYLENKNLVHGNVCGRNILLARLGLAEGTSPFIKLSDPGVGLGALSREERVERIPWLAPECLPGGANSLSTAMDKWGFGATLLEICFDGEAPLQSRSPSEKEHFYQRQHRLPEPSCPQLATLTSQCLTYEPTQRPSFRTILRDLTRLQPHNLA

`[2H]C([2H])([2H])OC1(C)CC(n2cccc(Nc3cc(NC)c4ncc(C(=O)N[C@@H]5C[C@H]6CCO[C@H]65)n4n3)c2=O)C1` (single isomer, unassigned) [Compound 93b] was tested, and the IC50 ([1]; HEK-Blue IL-23 cells) was 10 to 100 nM and the IC50 [2] was 10 to 100 nM.

`CNc1cc(Nc2cccn([C@H]3C[C@@H](OC)C3)c2=O)nn2c(C(=O)N[C@@H]3C[C@H]4CCO[C@H]43)cnc12` [Compound 85] showed an IC50 [1, 3] of 10 to 100 nM and an IC50 [2] of 10 to 100 nM.

Compound `CNc1cc(Nc2cccc(C)n2)nc2c(C(=O)NC3CCn4ccnc43)cnn12` (racemic) [Compound 32] has an IC50 [1, 3] of under 10 nM and an IC50 [2] of 10 to 100 nM.

`CNc1cc(Nc2cccn(-c3ccccc3)c2=O)nn2c(C(=O)N[C@@H]3C[C@H]4CCO[C@H]43)cnc12` [Compound 46] showed an IC50 [1, 3] of under 10 nM and an IC50 [2] of 10 to 100 nM.

Compound `CNc1cc(Nc2cccc3c2OCCC3)nc2c(C(=O)NC(C)c3ncco3)cnn12` (single isomer, unassigned) [Compound 23a] has an IC50 ([1]; HEK-Blue IL-23 cells) of at least 1000 nM and an IC50 [2] of 100 to 1000 nM.

For `[2H]C([2H])([2H])Nc1cc(Nc2cccn(C3CCCC4(COC4)C3)c2=O)nn2c(C(=O)N[C@@H]3C[C@H]4CCO[C@H]43)cnc12` (single isomer, unassigned) [Compound 68a], the IC50 [1, 3] was 10 to 100 nM and the IC50 [2] was 10 to 100 nM.

With `[2H]C([2H])([2H])Nc1cc(Nc2cccn(C3CC4(CCOC4)C3)c2=O)nc2c(C(=O)N[C@@H]3C[C@@H]3F)cnn12` (single isomer, unassigned) [Compound 103a] the IC50 [1, 3] was 10 to 100 nM and the IC50 [2] was 10 to 100 nM.

Compound `CNc1cc(Nc2cccn([C@H]3CC[C@H](OC)CC3)c2=O)nn2c(C(=O)N[C@@H]3C[C@@H]3F)cnc12` [Compound 16, N-((1R,2S)-2-fluorocyclopropyl)-6-((1-((1r,4r)-4-methoxycyclohexyl)-2-oxo-1,2-dihydropyridin-3-yl)amino)-8-(methylamino)imidazo[1,2-b]pyridazine-3-carboxamide] has an IC50 [1, 3] of under 10 nM and an IC50 [2] of 10 to 100 nM.

`CNc1cc(Nc2cccn(C3CCOCC3)c2=O)nn2c(C(=O)N[C@@H]3C[C@H]4CCO[C@H]43)cnc12` [Compound 66] showed an IC50 [1, 3] of under 10 nM and an IC50 [2] of 10 to 100 nM.

Compound `CNc1cc(Nc2cccn(-c3ccccn3)c2=O)nc2c(C(=O)NC3CCc4conc43)cnn12` (racemic) [Compound 37] has an IC50 [1, 3] of under 10 nM and an IC50 [2] of 10 to 100 nM.

Compound `[2H]C([2H])([2H])Nc1cc(Nc2cccn([C@H]3CC[C@H](OC([2H])([2H])[2H])CC3)c2=O)nn2c(C(=O)N[C@@H]3C[C@@H]3F)cnc12` [Compound 69] has an IC50 [1, 3] of under 10 nM and an IC50 [2] of 10 to 100 nM.

Compound `[2H]C([2H])([2H])OC1(C)CC(n2cccc(Nc3cc(NC)c4ncc(C(=O)N[C@@H]5C[C@H]6CCO[C@H]65)n4n3)c2=O)C1` (single isomer, unassigned) [Compound 93a] has an IC50 [1, 3] of 10 to 100 nM and an IC50 [2] of 10 to 100 nM.

`CNc1cc(Nc2cccn(-c3ccccn3)c2=O)nc2c(C(=O)NC3CCn4ncnc43)cnn12` (stereo not drawn) [Compound 17, N-(6,7-dihydro-5H-pyrrolo[1,2-b][1,2,4]triazol-7-yl)-7-(methylamino)-5-((2-oxo-2H-[1,2′-bipyridin]-3-yl)amino)pyrazolo[1,5-a]pyrimidine-3-carboxamide] gave an IC50 [1, 3] of 10 to 100 nM and an IC50 [2] of 10 to 100 nM.

`[2H]C([2H])([2H])O[C@H]1C[C@H](n2cccc(Nc3cc(NC)c4ncc(C(=O)N[C@@H]5C[C@H]6CCO[C@H]65)n4n3)c2=O)C1` [Compound 83] gave an IC50 [1, 3] of 10 to 100 nM and an IC50 [2] of 10 to 100 nM.

`CNc1cc(Nc2cccn(C3CC4CCOC43)c2=O)nn2c(C(=O)N[C@@H]3C[C@@H]3F)cnc12` (single isomer, unassigned) [Compound 105c] was tested, and the IC50 ([1]; HEK-Blue IL-23 cells) was 10 to 100 nM and the IC50 [2] was 10 to 100 nM.

`CNc1cc(Nc2cccn(CC3CCCO3)c2=O)nn2c(C(=O)N[C@@H]3C[C@H]4CCO[C@H]43)cnc12` (single isomer, unassigned) [Compound 62b] gave an IC50 ([1]; HEK-Blue IL-23 cells) of 10 to 100 nM and an IC50 [2] of 10 to 100 nM.

`CNc1cc(Nc2cccn(C3CC4CCOC43)c2=O)nn2c(C(=O)N[C@@H]3C[C@@H]3F)cnc12` (single isomer, unassigned) [Compound 105b] showed an IC50 ([1]; HEK-Blue IL-23 cells) of 10 to 100 nM and an IC50 [2] of 100 to 1000 nM.

`CNc1cc(Nc2cccn(C3CC4CCOC43)c2=O)nn2c(C(=O)N[C@@H]3C[C@@H]3F)cnc12` (single isomer, unassigned) [Compound 105d] gave an IC50 ([1]; HEK-Blue IL-23 cells) of under 10 nM and an IC50 [2] of 10 to 100 nM.

`[2H]C([2H])([2H])Nc1cc(Nc2cccn(C3CC4OCCC43)c2=O)nn2c(C(=O)N[C@@H]3C[C@H]4CCO[C@H]43)cnc12` (single isomer, unassigned) [Compound 94a] gave an IC50 [1, 3] of 10 to 100 nM and an IC50 [2] of 10 to 100 nM.

`[2H]c1onc2c1CCC2NC(=O)c1cnn2c(NC)cc(Nc3cccn(-c4ccccn4)c3=O)nc12` (racemic) [Compound 38] showed an IC50 [1, 3] of under 10 nM and an IC50 [2] of 10 to 100 nM.

`CNc1cc(Nc2cccn(-c3ncccc3F)c2=O)nn2c(C(=O)N[C@@H]3C[C@H]4CCO[C@H]43)cnc12` [Compound 1, N-((1R,5S,7R)-2-oxabicyclo[3.2.0]heptan-7-yl)-6-((3′-fluoro-2-oxo-2H-[1,2′-bipyridin]-3-yl)amino)-8-(methylamino)imidazo[1,2-b]pyridazine-3-carboxamide] showed an IC50 [1, 3] of under 10 nM and an IC50 [2] of 10 to 100 nM.

With `[2H]C([2H])([2H])Nc1cc(Nc2cccn([C@@H]3C[C@H]4CCO[C@H]43)c2=O)nn2c(C(=O)N[C@@H]3C[C@@H]3F)cnc12` [Compound 106] the IC50 [1, 3] was under 10 nM and the IC50 [2] was under 10 nM.

`CNc1cc(Nc2cccc3c2OCCC3)nn2c(C(=O)N[C@@H]3C[C@H]4CCO[C@H]43)cnc12` (racemic) [Compound 25] showed an IC50 [1, 3] of under 10 nM and an IC50 [2] of under 10 nM.

Compound `CNc1cc(Nc2cccn(-c3nn(C)cc3F)c2=O)nn2c(C(=O)N[C@@H]3C[C@H]4CCO[C@H]43)cnc12` [Compound 54] has an IC50 [1, 3] of under 10 nM and an IC50 [2] of 10 to 100 nM.

With `CNc1cc(Nc2cccn(-c3ccccn3)c2=O)nn2c(C(=O)NC3CCc4scnc43)cnc12` (stereo not drawn) [Compound 9, N-(5,6-dihydro-4H-cyclopenta[d]thiazol-4-yl)-8-(methylamino)-6-((2-oxo-2H-[1,2′-bipyridin]-3-yl)amino)imidazo[1,2-b]pyridazine-3-carboxamide] the IC50 [1, 3] was under 10 nM and the IC50 [2] was under 10 nM.

`[2H]C([2H])([2H])O[C@H]1CC[C@@H](n2cccc(Nc3cc(NC)c4ncc(C(=O)N[C@@H]5C[C@@H]5F)n4n3)c2=O)CC1` [Compound 15, N-((1R,2S)-2-fluorocyclopropyl)-6-((1-((1s,4s)-4-(methoxy-d3)cyclohexyl)-2-oxo-1,2-dihydropyridin-3-yl)amino)-8-(methylamino)imidazo[1,2-b]pyridazine-3-carboxamide hydrochloride] was tested, and the IC50 [1, 3] was 10 to 100 nM and the IC50 [2] was 10 to 100 nM.

With `[2H]C([2H])([2H])Nc1cc(Nc2cccn([C@H]3CC[C@@H](OC([2H])([2H])[2H])CC3)c2=O)nn2c(C(=O)N[C@@H]3C[C@@H]3F)cnc12` [Compound 72] the IC50 [1, 3] was under 10 nM and the IC50 [2] was 10 to 100 nM.

For `CNc1cc(Nc2cccc3c2OCCC3)nn2c(C(=O)NCc3nccn3C)cnc12` [Compound 21], the IC50 [1, 3] was under 10 nM and the IC50 [2] was 10 to 100 nM.

`CNc1cc(Nc2cccn(-c3ccccn3)c2=O)nc2c(C(=O)NC(C)c3ncco3)cnn12` (single isomer, unassigned) [Compound 36b] showed an IC50 ([1]; HEK-Blue IL-23 cells) of 10 to 100 nM and an IC50 [2] of 10 to 100 nM.

Work on `[2H]C([2H])([2H])Nc1cc(Nc2cccn(C3CC4(CCOC4)C3)c2=O)nn2c(C(=O)N[C@@H]3C[C@@H]3F)cnc12` (single isomer, unassigned) [Compound 102a] yielded an IC50 [1, 3] of 10 to 100 nM and an IC50 [2] of 10 to 100 nM.
